Reference: ChEMBL document CHEMBL1201862, “PubChem BioAssay data set” (2004)
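Assay format: 96-well plates, 48-hour exposure. Here, GI50 denotes the concentration required for 50% inhibition of growth.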 The source made the active and inactive calls. No stated cut-off is given here; in the data, active = GI50 up to about 1.1 µM and inactive = higher.

What was measured:
Assay in all cases: inhibition of tumour cell growth, NCI panel, 48 h
HL-60 = tested on: HL-60
HT-29 = tested on: HT-29
SK-OV-3 = tested on: SK-OV-3
MDA-MB-231 = tested on: MDA-MB-231
SF-295 = tested on: SF-295
NCI-H522 = tested on: NCI-H522
RPMI-8226 = tested on: RPMI-8226
A498 = tested on: A498
MDA-N = tested on: MDA-N
HCT-15 = tested on: HCT-15
NCI-H226 = tested on: NCI-H226
SK-MEL-5 = tested on: SK-MEL-5
SR = tested on: SR
KM12 = tested on: KM12
NCI-H460 = tested on: NCI-H460
TK-10 = tested on: TK-10
OVCAR-8 = tested on: OVCAR-8

COc1ccc(N/N=C2\CCOc3ccc(C)cc3C2=O)cc1
GI50 (HL-60): 11.9 µM (inactive) | GI50 (HT-29): 7.8 µM (inactive) | GI50 (SK-OV-3): 18.2 µM (inactive) | GI50 (MDA-MB-231): 14.4 µM (inactive) | GI50 (SF-295): 10.3 µM (inactive) | GI50 (NCI-H522): 24.7 µM (inactive) | GI50 (RPMI-8226): 25.5 µM (inactive) | GI50 (A498): 59.8 µM (inactive) | GI50 (MDA-N): 3.98 µM (inactive) | GI50 (HCT-15): 5.52 µM | GI50 (NCI-H226): 27.4 µM (inactive) | GI50 (SK-MEL-5): 19.1 µM (inactive) | GI50 (SR): 15.6 µM (inactive) | GI50 (KM12): 5.08 µM (inactive) | GI50 (NCI-H460): 13.7 µM (inactive) | GI50 (TK-10): 55.6 µM (inactive) | GI50 (OVCAR-8): 31.8 µM (inactive)

COC(=O)c1ccccc1C1CN=NC12Cc1ccc(C)cc1C2=O (configuration not stated)
GI50 (HL-60): 33.3 µM (inactive) | GI50 (HT-29): 42.6 µM (inactive) | GI50 (SK-OV-3): > 100 µM (inactive) | GI50 (MDA-MB-231): > 100 µM (inactive) | GI50 (SF-295): 46.8 µM (inactive) | GI50 (NCI-H522): 30.5 µM (inactive) | GI50 (RPMI-8226): 49.7 µM (inactive) | GI50 (A498): > 100 µM (inactive) | GI50 (MDA-N): 27.7 µM (inactive) | GI50 (HCT-15): 56.1 µM | GI50 (NCI-H226): 73.1 µM (inactive) | GI50 (SK-MEL-5): 38.1 µM (inactive) | GI50 (SR): 63.8 µM (inactive) | GI50 (KM12): 37.9 µM (inactive) | GI50 (NCI-H460): > 100 µM (inactive) | GI50 (TK-10): > 100 µM (inactive) | GI50 (OVCAR-8): > 100 µM (inactive)

O=C(CC(O)(C(F)(F)F)C(F)(F)F)C(c1ccccc1)C(O)(C(F)(F)F)C(F)(F)F (configuration not stated)
GI50 (HL-60): 9.71 µM (inactive) | GI50 (HT-29): 15.2 µM (inactive) | GI50 (SK-OV-3): 5.92 µM (inactive) | GI50 (MDA-MB-231): > 100 µM (inactive) | GI50 (SF-295): 40 µM (inactive) | GI50 (NCI-H522): 38.3 µM (inactive) | GI50 (RPMI-8226): 5.33 µM (inactive) | GI50 (A498): 13.9 µM (inactive) | GI50 (MDA-N): 78.2 µM (inactive) | GI50 (HCT-15): 9.53 µM | GI50 (NCI-H226): 42.8 µM (inactive) | GI50 (SK-MEL-5): 18.8 µM (inactive) | GI50 (SR): 9.31 µM (inactive) | GI50 (KM12): 8.55 µM (inactive) | GI50 (NCI-H460): 6.08 µM (inactive) | GI50 (TK-10): 26.3 µM (inactive) | GI50 (OVCAR-8): 14.8 µM (inactive)

N#CC1CCCC2SC(F)(F)C(F)(F)C12 (configuration not stated)
GI50 (HL-60): 19.7 µM (inactive) | GI50 (HT-29): > 88.5 µM (inactive) | GI50 (SK-OV-3): > 100 µM (inactive) | GI50 (MDA-MB-231): > 100 µM (inactive) | GI50 (SF-295): > 100 µM (inactive) | GI50 (NCI-H522): > 87.5 µM (inactive) | GI50 (RPMI-8226): > 46.8 µM (inactive) | GI50 (A498): > 100 µM (inactive) | GI50 (MDA-N): > 100 µM (inactive) | GI50 (HCT-15): > 100 µM | GI50 (NCI-H226): > 100 µM (inactive) | GI50 (SK-MEL-5): > 100 µM (inactive) | GI50 (SR): 23.8 µM (inactive) | GI50 (KM12): > 100 µM (inactive) | GI50 (NCI-H460): > 100 µM (inactive) | GI50 (TK-10): > 100 µM (inactive) | GI50 (OVCAR-8): > 100 µM (inactive)

CC(=O)NNc1nc(C)c(C(/C=C/c2ccc([N+](=O)[O-])cc2)=N/NC(N)=S)s1
GI50 (HL-60): > 100 µM (inactive) | GI50 (HT-29): > 100 µM (inactive) | GI50 (SK-OV-3): > 100 µM (inactive) | GI50 (MDA-MB-231): > 100 µM (inactive) | GI50 (SF-295): > 100 µM (inactive) | GI50 (NCI-H522): > 100 µM (inactive) | GI50 (RPMI-8226): > 100 µM (inactive) | GI50 (A498): > 100 µM (inactive) | GI50 (MDA-N): > 100 µM (inactive) | GI50 (HCT-15): > 100 µM | GI50 (NCI-H226): > 100 µM (inactive) | GI50 (SK-MEL-5): > 100 µM (inactive) | GI50 (SR): > 100 µM (inactive) | GI50 (KM12): > 100 µM (inactive) | GI50 (NCI-H460): > 100 µM (inactive) | GI50 (TK-10): > 100 µM (inactive) | GI50 (OVCAR-8): > 100 µM (inactive)

CC(C)=CCC/C(C)=C/C=C/C(C)=C/C=C/C(C)=C/C=C/C=C(C)/C=C/C=C(C)/C=C/[C@H]1C(C(C)(C)O)CC[C@]1(C)O (some centres not stated)
GI50 (HL-60): 19.3 µM (inactive) | GI50 (HT-29): 27.5 µM (inactive) | GI50 (SK-OV-3): 56.2 µM (inactive) | GI50 (MDA-MB-231): 25.4 µM (inactive) | GI50 (SF-295): 32.7 µM (inactive) | GI50 (NCI-H522): 17.3 µM (inactive) | GI50 (RPMI-8226): 17.7 µM (inactive) | GI50 (A498): 27.1 µM (inactive) | GI50 (MDA-N): 25.1 µM (inactive) | GI50 (HCT-15): 19.4 µM | GI50 (NCI-H226): 71.1 µM (inactive) | GI50 (SK-MEL-5): 15.5 µM (inactive) | GI50 (SR): 23 µM (inactive) | GI50 (KM12): 27.4 µM (inactive) | GI50 (NCI-H460): 29.8 µM (inactive) | GI50 (TK-10): 37.3 µM (inactive) | GI50 (OVCAR-8): 20.2 µM (inactive)
